The assay addresses Carbonic anhydrase 2 (Homo sapiens) (UniProt P00918).

The structures appear in SMILES notation.

Description: Inhibition of carbonic anhydrase 2 assessed as inhibition of carbon dioxide hydration

As to `NS(=O)(=O)c1ccc(/N=C/c2ccc(Cl)cc2)cc1`, the logKi is 2.45. For the molecule `NS(=O)(=O)c1ccc(C/N=C/c2ccccc2Cl)cc1`, the logKi was 1.95. On to `CC(=O)Nc1ccc(/C=N/Cc2ccc(S(N)(=O)=O)cc2)cc1`, for which the logKi was 2.04. The figure for `CS(=O)(=O)/N=C/C1=C(O)CCC=C1` is 1.6; for `COc1ccc(/C=N/Cc2ccc(S(N)(=O)=O)cc2)cc1` it is 2.08; for `NS(=O)(=O)c1ccc(C/N=C/c2ccccc2[N+](=O)[O-])cc1` it is 2.48. The figure for `CS(=O)(=O)c1ccc(CC/N=C/c2ccccc2Cl)cc1` is 2.32; for `NS(=O)(=O)c1ccc(C/N=C/c2ccc([N+](=O)[O-])cc2)cc1` (stereo in doubt; 45) it is 1.3. In turn, `NS(=O)(=O)c1ccc(/N=C/c2ccc([N+](=O)[O-])cc2)cc1` gave a logKi of 1.7.

`COc1cc(/C=N/c2ccc(S(N)(=O)=O)cc2)ccc1C(C)=O` gave a logKi of 2.

For the molecule `CC(=O)Nc1ccc(/C=N/CCc2ccc(S(C)(=O)=O)cc2)cc1`, the logKi was determined as 1.6. `NS(=O)(=O)c1ccc(C/N=C/c2ccccc2O)cc1` displayed a logKi of 2.11.

The molecule `NS(=O)(=O)c1ccc(C/N=C/c2ccc([N+](=O)[O-])cc2)cc1` (stereo in doubt; 60) yielded a logKi of 2.15. The figure for `NS(=O)(=O)c1ccc(/N=C/C2=C(Cl)CCC=C2)cc1` is 2.46. The figure for `NS(=O)(=O)c1ccc(/N=C/c2cccc([N+](=O)[O-])c2)cc1` is 2.25; for `NS(=O)(=O)c1ccc(/N=C/C=C/c2ccccc2)cc1` it is 1.7; for `COc1ccccc1/C=N/c1ccc(S(N)(=O)=O)cc1` it is 2.23. `CC(=O)Nc1ccc(/C=N/c2ccc(S(N)(=O)=O)cc2)cc1` returned a logKi of 2.04.

For the origin of these results see ChEMBL document CHEMBL1154241, “A QSAR study on relationship between structure of sulfonamides and their carbonic anhydrase inhibitory activity using the eigenvalue (EVA) method” (Eur J Med Chem, 2009).
